Assay results: patent US20250332173A1, “COMPOUNDS AND METHODS FOR MODULATING NUCLEIC ACID SPLICING” (REMIX THERAPEUTICS INC., priority 2021, published 2025)
Where a name gives a salt, the structure may show the parent alone. Read-outs that look alike come from different tables or passages of the source.

Key:
Type in all cases: cell-based, human
HTT mRNA = assay: RT-qPCR splicing assay, HTT canonical junction (CJ) and alternative junction (AJ) mRNA; conditions: Homo sapiens; for AC50: increase in HTT alternative junction (AJ) mRNA, read-out: HTT AJ AC50
In short: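 Read-out is one-step RT-qPCR on cell lysates detecting the exon-exon junction of each isoform, normalized to a housekeeping gene (PPIA in A673, GAPDH or GUSB in K562).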

MYB = assay: HiBiT protein abundance assay, MYB HiBiT K562 cell line; conditions: 24 hours, top dose 10 μM
In short: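 Tagged-protein abundance measured by split-NanoBiT luminescence after lysis, following 24 h compound exposure (37° C; 10 μM top, 3-fold, 10 points; DMSO ≤0.25%) of HiBiT knock-in K562 cells. Percent response vs DMSO and unmodified-cell controls; 4-parameter logistic interpolation at 50% gave IC50.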

Target C = assay: HiBiT protein abundance assay, Target C (Promega Nano-Glo HiBiT Lytic Detection System, knock-in K562 cell line); conditions: Homo sapiens, K562, 24 h, HiBiT K562 cell line, 24 hours, top dose 10 μM; read-out: Effect on protein abundance, Target C (IC50 category)
In short: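 Protein abundance was read by Nano-Glo HiBiT lytic luminescence after 24 h compound exposure (10-point, threefold series from 10 μM final) of HiBiT knock-in K562 cells. Parental K562 served as baseline; the 50%-abundance concentration was interpolated from a four-parameter logistic fit.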

[1] = decrease in HTT canonical junction (CJ) mRNA, RT-qPCR, read-out: HTT CJ IC50
[2] = Table 5 panel, canonical junction qPCR, compound concentration having 50% response in CJ decrease, read-out: HTT IC50 (decrease in CJ mRNA levels)
[3] = HiBiT K562 cell line, read-out: Effect on protein abundance, MYB (IC50 category)
[4] = HiBiT lytic detection, modified K562 cells, read-out: Effect on protein abundance, MYB (IC50)

Structure (SMILES)	IC50 (HTT mRNA; [1]) [nM]	AC50 (HTT mRNA; RT-qPCR) [nM]	IC50 (HTT mRNA; [2]) [nM]	IC50 (MYB; [3]) [nM]	IC50 (Target C) [nM]	IC50 (MYB; [4]) [nM]
Cc1cn2cc(-c3cc(F)c4c(=O)n([C@@H]5CNC[C@@H]5C)ccc4c3)cc(F)c2n1 [Compound 653, 8-fluoro-6-(8-fluoro-2-methyl-imidazo[1,2-a]pyridin-6-yl)-2-[(3S,4S)-4-methylpyrrolidin-3-yl]isoquinolin-1-one]	> 10000	> 10000	> 10000	1000 to 10000	> 10000	
Cc1cn2nc(-c3cc(O)c4c(=O)n(C5CCN(C)CC5)ncc4c3)cc(C)c2n1 [Compound 543]	100 to 1000	< 100	< 100	100 to 1000	100 to 1000	
CNc1cc(-c2cc(C)c3nc(C)cn3n2)cc2ccn([C@@H]3CCNC3)c(=O)c12 [Compound 648, 6-(2,8-dimethylimidazo[1,2-b]pyridazin-6-yl)-8-(methylamino)-2-[(3R)-pyrrolidin-3-yl]isoquinolin-1-one]	> 10000	> 10000	> 10000	1000 to 10000	> 10000	
CN1CCN(c2ccc3c(=O)n(-c4ccc5cn(C)nc5c4)cnc3c2)CC1 [Compound 178]	> 10000	> 10000	> 10000	> 10000	> 10000	
CC(=O)Nc1cc(-c2cc(C)c3nc(C)cn3n2)cc2ccn([C@@H]3CCNC3)c(=O)c12 [Compound 650, N-[6-(2,8-dimethylimidazo[1,2-b]pyridazin-6-yl)-1-oxo-2-[(3R)-pyrrolidin-3-yl]-8-isoquinolyl]acetamide]	> 10000	> 10000	> 10000	> 10000	> 10000	
Cc1nc2c(C)cc(-c3ccc4c(=O)n(C5CCNC6(CC6)C5)ncc4c3)cc2o1 (centres unmarked) [Compound 513]	100 to 1000	100 to 1000	100 to 1000	1000 to 10000	1000 to 10000	
Cc1cn2nc(-c3cc(F)c4c(=O)n([C@@H]5CCN(C)C6(CC6)C5)ncc4c3)cc(C)c2n1 [Compound 637]	< 100	< 100	< 100	< 100	< 100	
COC(=O)c1cc(-c2ccc3c(=O)n(C4CCNCC4)ccc3c2)nn2cc(C)nc12 [Compound 517, methyl 2-methyl-6-[1-oxo-2-(4-piperidyl)-6-isoquinolyl]imidazo[1,2-b]pyridazine-8-carboxylate]	1000 to 10000	1000 to 10000	1000 to 10000	100 to 1000	1000 to 10000	
Cc1cn2nc(-c3ccc4c(=O)n(C5CCNCC5)ccc4c3)cc(CO)c2n1 [Compound 525, 6-[8-(hydroxymethyl)-2-methyl-imidazo[1,2-b]pyridazin-6-yl]-2-(4-piperidyl) isoquinolin-1-one]	100 to 1000	< 100	< 100	< 100	100 to 1000	
Cc1cn2nc(-c3ccc4c(=O)n(C5CCNCC5)ccc4c3)cc(Oc3cccc(F)c3)c2n1 [Compound 545, 6-[8-(3-fluorophenoxy)-2-methyl-imidazo[1,2-b]pyridazin-6-yl]-2-(4-piperidyl)isoquinolin-1-one; hydrochloride]	< 100	< 100	< 100	< 100	< 100	
Cc1cn2nc(-c3ccc4c(=O)n(C5CCNCC5)ncc4c3)cc(Oc3ccccc3)c2n1 [Compound 549, 6-(2-methyl-8-phenoxy-imidazo[1,2-b]pyridazin-6-yl)-2-(4-piperidyl) phthalazin-1-one]	< 100	< 100	< 100	< 100	< 100	
Cc1cn2nc(-c3cc(N)c4c(=O)n([C@H]5CCNC5)ccc4c3)cc(C)c2n1 [Compound 645, 8-amino-6-(2,8-dimethylimidazo[1,2-b]pyridazin-6-yl)-2-[(3S)-pyrrolidin-3-yl]isoquinolin-1-one]	> 10000	1000 to 10000	1000 to 10000	1000 to 10000	> 10000	
COc1cccc(Oc2cc(-c3ccc4c(=O)n(C5CCNCC5)ccc4c3)nn3cc(C)nc23)c1 [Compound 547, 6-[8-(3-methoxyphenoxy)-2-methyl-imidazo[1,2-b]pyridazin-6-yl]-2-(4 piperidyl) isoquinolin-1-one]	< 100	< 100	< 100	< 100	< 100	
Cc1cn2cc(-c3cc(F)c4c(=O)n([C@H]5CNC[C@@H]5F)ccc4c3)cc(F)c2n1 [Compound 644]	> 10000	> 10000	> 10000	1000 to 10000	> 10000	
Cc1cn2nc(-c3ccc4c(=O)n(C5CCN(CCF)CC5)ncc4c3)cc(C)c2n1 [Compound 515]	100 to 1000	100 to 1000	100 to 1000	1000 to 10000	1000 to 10000	
Cc1nc2c(C)cc(-c3cc(F)c4c(=O)n(C5CCNC6(CC6)C5)ncc4c3)cc2o1 (centres unmarked) [Compound 555]	< 100	< 100	< 100	100 to 1000	100 to 1000	
Cc1cn2nc(-c3ccc4c(=O)n(C5CCNCC5)ccc4c3)cc(OCc3ccccc3)c2n1 [Compound 526, 6-(8-benzyloxy-2-methyl-imidazo[1,2-b]pyridazin-6-yl)-2-(4-piperidyl) isoquinolin-1-one]	100 to 1000	100 to 1000	100 to 1000	< 100	100 to 1000	
Cc1cn2nc(-c3ccc4c(=O)n(C5CCNCC5)ccc4c3)cc(Oc3ccccc3F)c2n1 [Compound 544, 6-[8-(2-fluorophenoxy)-2-methyl-imidazo[1,2-b]pyridazin-6-yl]-2-(4-piperidyl) isoquinolin-1-one; hydrochloride]	< 100	< 100	< 100	< 100	< 100	
Cc1cc(-c2ccc3c(=O)n(C4CC(C)(C)NC(C)(C)C4)cnc3n2)cc2cn(C)nc12 [Compound 179]	> 10000	> 10000	> 10000	> 10000	> 10000	
CC(=O)Nc1cc(-c2cc(C)c3nc(C)cn3n2)cc2ccn([C@H]3CCNC3)c(=O)c12 [Compound 649, N-[6-(2,8-dimethylimidazo[1,2-b]pyridazin-6-yl)-1-oxo-2-[(3S)-pyrrolidin-3-yl]-8-isoquinolyl]acetamide]	1000 to 10000	1000 to 10000	1000 to 10000	1000 to 10000	1000 to 10000	
Cc1cn2nc(-c3ccc4c(=O)n(C5CCNCC5)ccc4c3)cc(C(=O)O)c2n1 [Compound 516, 2-methyl-6-[1-oxo-2-(4-piperidyl)-6-isoquinolyl]imidazo[1,2-b]pyridazine-8-carboxylic acid]	1000 to 10000	1000 to 10000	1000 to 10000	1000 to 10000	1000 to 10000	
Cc1cn2cc(-c3cc(F)c4c(=O)n(C5CCNCC5)cnc4c3)cc(C#N)c2n1 [Compound 588]	1000 to 10000	1000 to 10000	1000 to 10000	100 to 1000	1000 to 10000	
Cc1cn2cc(-c3cc(F)c4c(=O)n([C@@H]5C[C@@H](C)N[C@@H](C)C5)ccc4c3)cc(F)c2n1 [Compound 642, 2-[(2S,6R)-2,6-dimethyl-4-piperidyl]-8-fluoro-6-(8-fluoro-2-methyl-imidazo[1,2-a]pyridin-6-yl)isoquinolin-1-one]	1000 to 10000	100 to 1000	100 to 1000	100 to 1000	1000 to 10000	
Cc1cn2nc(-c3ccc4c(=O)n(C5CCNCC5)cnc4c3)cc(C)c2n1 [Compound 181]	100 to 1000	100 to 1000	100 to 1000	< 100	< 100	
Cc1cn2nc(-c3ccc4c(=O)n(C5CCNCC5)ccc4c3)cc(CC#N)c2n1 [Compound 520, 2-[2-methyl-6-[1-oxo-2-(4-piperidyl)-6-isoquinolyl]imidazo[1,2-b]pyridazin-8-yl]acetonitrile]	100 to 1000	100 to 1000	100 to 1000	100 to 1000	1000 to 10000	
Cc1cn2nc(-c3ccn4c(=O)c(C5=CCNCC5)ncc4c3)cc(C)c2n1 [Compound 1182]	100 to 1000	100 to 1000	100 to 1000			100 to 1000
Cc1cn2nc(-c3ccn4c(=O)c(C5CCNCC5)ccc4c3)cc(C)c2n1 [Compound 1181]	< 100	< 100	< 100			< 100
CNC1CCN(c2ccc3cc(-c4cc(C)c5nc(C)cn5n4)ccn3c2=O)C1 (centres unmarked) [Compound 1158]	1000 to 10000	100 to 1000	100 to 1000			100 to 1000
